Source: US20110092448A1, “Peptide Conjugate for Oral Delivery of Hydrophilic Peptide Analgesics” (METABOLIC PHARMACEUTICALS LIMITED, priority 2005, published 2011)
Where two headings read alike, the source gives them in different places.

Tests used:
[1] = rat, in vivo
[2] = system: neuronal nicotinic acetylcholine receptor; type: cell-based, bovine
[3] = system: chronic neuropathy (CCI) in Sprague-Dawley rats; details: rat, in vivo
[4] = system: STZ diabetic Sprague-Dawley rats with neuropathic pain; details: rat, in vivo

Molecule	oral availability compared with subcutaneous (plasma concentrations) [1]	catecholamine release in response to nicotine [2]	analgesic effect (relieving pain) [3]	analgesic effect (relieving pain) ([3]; po)	analgesic effect (relieving pain) ([3]; sc)	relative oral availability [4]	minimum dose for maximal activity ([4]; po)	oral absorption (time profile of effect) ([4]; po)	minimum dose for maximal activity ([4]; sc)	analgesic effect vs vehicle group ([3]; 2 mg/kg)	withdrawal threshold after one hour ([3]; 2 mg/kg)
CC[C@H](C)[C@@H]1NC(=O)[C@H](CCC(=O)O)NC(=O)[C@@H]2CCCN2C(=O)[C@H](Cc2cnc[nH]2)NC(=O)[C@H](CC(=O)O)NC(=O)[C@H](Cc2ccc(O)cc2)NC(=O)[C@H](CC(N)=O)NC(=O)[C@@H]2CSSC[C@H](NC(=O)CN)C(=O)N[C@@H](CSSC[C@@H](C(N)=O)NC1=O)C(=O)N[C@@H](CO)C(=O)N[C@@H](CC(=O)O)C(=O)N1CCC[C@H]1C(=O)N[C@@H](CCCNC(=N)N)C(=O)N2 [ACV1, Gly-Cys-Cys-Ser-Asp-Pro-Arg-Cys-Asn-Tyr-Asp-His-Pro-Glu-Ile-Cys-NH2]	1-2%	decreased catecholamine release	not effective	not effective	effective						
Ac-Tyr-Leu-Arg-Ile-Val-Gly-Cys-Cys-Ser-Asp-Pro-Arg-Cys-Asn-Tyr-Asp-His-Pro-Glu-Ile-Cys-NH2 (Ac-YLRIVGCCSDPRCNYDHPEIC-NH2; cysteine pairing not given here) [ACV3]		decreased catecholamine release				30-70%	~0.3 mg/kg	rapid	~0.3 mg/kg	significant difference	increase in withdrawal threshold
